The text below walks through data of ChEMBL document CHEMBL5505954, “Design, synthesis and biological evaluation of the positional isomers of the galactose conjugates able to target hepatocellular carcinoma cells via ASGPR-mediated cellular uptake and cytotoxicity” (Eur J Med Chem, 2024).

Structures are written as SMILES. Active and inactive are the calls of the source. No cut-off for these calls is given here.

Series [1] deals with HepG2. The series is described as follows: Cytotoxicity against human HepG2 cells assessed as inhibition of cell growth incubated for 48 hrs by CCK-8 assay. Format: functional, cell-based. As to conditions: HepG2, 48 h.
For another series, the system named is Huh-7. The series is described as follows: Cytotoxicity against human Huh-7 cells assessed as inhibition of cell growth incubated for 48 hrs by CCK-8 assay. Format: functional, cell-based. To be noted: Huh-7, 48 h.
In another series the test system is Bel-7402. As to the kind of experiment: Cytotoxicity against human Bel-7402 cells assessed as inhibition of cell growth incubated for 48 hrs by CCK-8 assay. Format: functional, cell-based. As to conditions: Bel-7402, 48 h. (In general: Tetrazolium dyes change colour on reduction, which living cells bring about.)
The subject of the next series is A549. The series is described as follows: Cytotoxicity against human A549 cells assessed as inhibition of cell growth incubated for 48 hrs by CCK-8 assay. To be noted: A549, 48 h. Format: functional, cell-based.
The next series relates to DU-145. The series is described as follows: Cytotoxicity against human DU-145 cells assessed as inhibition of cell growth incubated for 48 hrs by CCK-8 assay. Format: functional, cell-based. As to conditions: DU-145, 48 h.
Series [2] is described as follows: Cytotoxicity against human HL7702 cells assessed as inhibition of cell growth incubated for 48 hrs by CCK-8 assay. Format: toxicity, cell-based. As to conditions: HL7702 (L02) cells.
A short description of series [3]: Potency index, ratio of test compound IC50 to doxorubicin IC50 for cytotoxicity against human HL7702 cells assessed as inhibition of cell growth incubated for 48 hrs by CCK-8 assay. Format: toxicity, cell-based. As to conditions: HL7702 (L02) cells, read-out: Ratio IC50.
Series [4] relates to HepG2. As to the kind of experiment: Cytotoxicity against human HepG2 cells harboring siRNA mediated ASGPR knockdown assessed as inhibition of cell growth by measuring increase in IC50 at 0.125 to 16 uM incubated for 48 hrs by CCK-8 assay. Format: functional, cell-based. To be noted: dose 0.125-16 µM.
Series [5] deals with HepG2. The series is described as follows: Competitive binding affinity to ASGPR in human HepG2 cells assessed as reduction in drug uptake pretreated for 0.5 hrs followed by 2-(-5-(-3,3-dimethyl-1-(6-oxo-6-((5-(((2R,3R,4S,5R)-3,4,5,6-tetrahydroxytetrahydro-2H-pyran-2-yl)methoxy)pentyl)amino)hexyl)-5-sulfoindolin-2-ylidene)penta-1,3-dien-1-yl …. Format: cell-based. As to conditions: time 4.5 hrs.

Series [6] can be described thus: Drug uptake in human HepG2 cells assessed as increase in fluorescence intensity at 25 uM incubated for 4 hrs by DAPI staining based confocal laser scanning microscopic analysis. Format: ADME, cell-based. As to conditions: hepg2, 4 h.
Series [7] in a line: Drug uptake in human A549 cells assessed as increase in fluorescence intensity at 25 uM incubated for 4 hrs by DAPI staining based confocal laser scanning microscopic analysis. Format: ADME, cell-based. As to conditions: a549, 4 h.
Series [8] in a line: Drug uptake in human HepG2 cells assessed as increase in fluorescence intensity incubated for 4 hrs by DAPI staining based confocal laser scanning microscopic analysis. To be noted: hepg2, 4 h, dose 0-50 µM. Format: ADME, cell-based.
Series [9] can be described thus: Drug uptake in human HepG2 cells assessed as increase in fluorescence intensity at 25 uM by DAPI staining based confocal laser scanning microscopic analysis. Format: ADME, cell-based. To be noted: hepg2, 25 µM, TDE = time-dependent effect, time 0-4 hrs.
Series [10] can be described thus: Drug uptake in human HepG2 cells assessed as increase in fluorescence intensity at 25 uM at 4 degreeC incubated for 4 hrs by DAPI staining based confocal laser scanning microscopic analysis. Format: ADME, cell-based. To be noted: hepg2, 4 h.
Series [11] in a line: Drug uptake in human HepG2 cells overexpressing ASGPR assessed as increase in fluorescence intensity at 25 uM incubated for 4 hrs by DAPI staining based confocal laser scanning microscopic analysis. Format: ADME, cell-based. To be noted: hepg2, 4 h.
Series [12] is described as follows: Drug uptake in human Huh-7 cells harboring low ASGPR expression assessed as increase in fluorescence intensity at 25 uM incubated for 4 hrs by DAPI staining based confocal laser scanning microscopic analysis. Format: ADME, cell-based. As to conditions: huh-7, 4 h.
The nature of series [13]: Drug uptake in human A549 cells lacking ASGPR expression assessed as increase in fluorescence intensity at 25 uM incubated for 4 hrs by DAPI staining based confocal laser scanning microscopic analysis. Format: ADME, cell-based. As to conditions: a549, 4 h.
Series [14] is described as follows: Drug uptake in human DU-145 cells lacking ASGPR expression assessed as increase in fluorescence intensity at 25 uM incubated for 4 hrs by DAPI staining based confocal laser scanning microscopic analysis. Format: ADME, cell-based. As to conditions: du-145, 4 h.

Consider `COc1cccc2c1C(=O)c1c(O)c3c(c(O)c1C2=O)C[C@@](O)(C(=O)CO)C[C@@H]3O[C@H]1C[C@H](NC(=O)CCCCCO[C@@H]2O[C@H](CO)[C@H](O)[C@H](O)[C@H]2O)[C@H](O)[C@H](C)O1`, for which the half-inhibitory concentration (IC50) (in general, the point on the concentration scale where inhibition reaches its midpoint) in the series on HepG2 [1] was 6.71 µM; in the series with Huh-7, 1.29 µM; in the series on Bel-7402 it was 4.67 µM; in the series with A549, above 10 µM; with DU-145 it was 2.67 µM. The IC50 at 48 h in series [2] was above 10 µM. For the same compound, the selectivity ratio at 48 h in [3] is above 12. In the series with HepG2 [4], the result was Active.

`COc1cccc2c1C(=O)c1c(O)c3c(c(O)c1C2=O)C[C@@](O)(C(=O)CO)C[C@@H]3O[C@H]1C[C@H](NC(=O)CCCCCOC[C@H]2OC(O)[C@H](O)[C@@H](O)[C@H]2O)[C@H](O)[C@H](C)O1` (stereo not given in full): the IC50 is above 10 µM in the series with HepG2 [1]; above 10 µM in the series with Huh-7; above 10 µM with Bel-7402; above 10 µM with A549; 6.74 µM with DU-145. Besides, the IC50 at 48 h in series [2] was above 10 µM. Besides, in [3], the selectivity ratio at 48 h is above 12.

With `CC(=O)N[C@H]1C(O)O[C@H](CO)[C@H](O)[C@@H]1O` (stereo not given in full), the Activity entry in the series on HepG2 [5] is “Dose-Dependent Effect”.

With `COc1cccc2c1C(=O)c1c(O)c3c(c(O)c1C2=O)C[C@@](O)(C(=O)CO)C[C@@H]3O[C@H]1C[C@H](NC(=O)CCCCCO[C@H]2C(O)O[C@H](CO)[C@H](O)[C@@H]2O)[C@H](O)[C@H](C)O1` (stereo not given in full), the IC50 with HepG2 [1] was 3.44 µM; in the series on Huh-7, 1.14 µM; in the series with Bel-7402, 3.11 µM; in the series on A549 it was 9.35 µM; in the series on DU-145, 0.88 µM. Besides, the IC50 at 48 h in [2] is 9.68 µM. Moreover, in series [3], the selectivity ratio at 48 h was above 12. The outcome in the series on HepG2 [4] was Active.

On to `OC[C@H]1OC(O)[C@H](O)[C@@H](O)[C@H]1O` (stereo not given in full), for which, in the series with HepG2 [5], the Activity entry is “Dose-Dependent Effect”.

Turning to `CC[N+]1=C(/C=C/C=C/C=C2/N(CCCCCC(=O)NCCCCCOC3O[C@H](CO)[C@H](O)[C@H](O)[C@H]3O)c3ccc(S(=O)(=O)O)cc3C2(C)C)C(C)(C)c2cc(S(=O)(=O)[O-])ccc21` (stereo not given in full), the Drug uptake result in series [6] and in series [7] was “Active” each time.

With `CC[N+]1=C(/C=C/C=C/C=C2/N(CCCCCC(=O)NCCCCCO[C@@H]3[C@H](O)[C@@H](O)C(O)O[C@@H]3CO)c3ccc(S(=O)(=O)O)cc3C2(C)C)C(C)(C)c2cc(S(=O)(=O)[O-])ccc21` (stereo not given in full), the Drug uptake entry in [6] and in series [7] was “Active” each time.

As to `COc1cccc2c1C(=O)c1c(O)c3c(c(O)c1C2=O)C[C@@](O)(C(=O)CO)C[C@@H]3O[C@H]1C[C@H](N)[C@H](O)[C@H](C)O1` [DOXORUBICIN], the figures for the IC50 in the series with Huh-7, in the series on Bel-7402 and in the series on DU-145 were 0.12 µM, 0.43 µM and below 0.1 µM, respectively.

With `CC[N+]1=C(/C=C/C=C/C=C2/N(CCCCCC(=O)NCCCCCO[C@H]3[C@@H](O)[C@@H](CO)OC(O)[C@@H]3O)c3ccc(S(=O)(=O)O)cc3C2(C)C)C(C)(C)c2cc(S(=O)(=O)[O-])ccc21` (stereo not given in full), the Drug uptake result in [6] and in [7] was “Active” each time.

Take `CC[N+]1=C(/C=C/C=C/C=C2/N(CCCCCC(=O)NCCCCCOC[C@H]3OC(O)[C@H](O)[C@@H](O)[C@H]3O)c3ccc(S(=O)(=O)O)cc3C2(C)C)C(C)(C)c2cc(S(=O)(=O)[O-])ccc21` (stereo not given in full): the Drug uptake result in series [6] is reported as “Active”; in series [7] it was “Active”; in series [8], “Dose-Dependent Effect”; in [9] it was “Tde”; in series [10], “Not Active”; in [11], “Active”. In addition, the Drug uptake result in [12], in series [13] and in series [14] was “Not Active” each time.

Turning to `CC[N+]1=C(/C=C/C=C/C=C2/N(CCCCCC(=O)NCCCCCO[C@H]3C(O)O[C@H](OO)[C@H](O)[C@@H]3O)c3ccc(S(=O)(=O)O)cc3C2(C)C)C(C)(C)c2cc(S(=O)(=O)[O-])ccc21` (stereo not given in full), the Drug uptake entry in series [6] and in series [7] was “Active” throughout.
